# From patent publication US12486300B2, “Mithramycin oxime derivatives having increased selectivity and anti-cancer activity” (University of Kentucky Research Foundation, priority 2018, dated 2025)
# Test system: TC32 Ewing sarcoma cells, expressing EWS-FLI1
# Experiment: Growth inhibition assay, TC32 cells
# Assay type: cell-based
# Conditions: ratio of GI50 PC3 to TC32
# Method: Growth inhibition assay to assess cytotoxicity in ETS vs non-ETS expressing cells. Cells were seeded in clear 96-well plates (VWR, Radnor, PA). Seeding densities were optimized for each cell line to support 5 days of linear growth. Following a 24 hours attachment period, cells in duplicate wells were treated with half-log increments of respective compounds (0 nM and 0.3 nM-10 μM). Working stocks were prepared from an initial 10 mM drug stock diluted in either 100% ethanol or dimethyl sulfoxide (DMSO). All wells contained a final concentration of 0.1% (v/v) respective organic solvent. Immediately following treatment, cell viability was measured for vehicle control (Day 0) wells. Cell viability was measured in the remaining wells after 72 hours of incubation with compound or vehicle control (Day 3).
# Percent viability, relative to the initial cell seeding concentration, was calculated by ((TreatmentDay3−Vehicle ControlDay0)/(Vehicle ControlDay3−Vehicle ControlDay0))×100. Percent cell viability was plotted as a function of compound concentration (Log [M]) and the data were fit using a 3-parameter non-linear model with fixed Hill slope constant and 4-parameter non-linear model with variable Hill slope constant. The model with the best curve fit was used to estimate the GI50 in GraphPad Prism 7.0 software (GraphPad Software, La Jolla, CA). The 3-parameter equation used was Y=Bottom+(Top−Bottom)/(1+10[…]((X−Log[IC50]))). The 4-parameter equation used was Y=Bottom+(Top−Bottom)/(1+10[…]((Log[IC50]−X)*Hillslope)). Top and Bottom are plateaus in the units of the Y-axis (response). IC50 is the response (Y-axis) halfway between Top and Bottom plateaus.
# All compounds were tested at least once in multi-well replicates and each experiment included one a control compound (i.e., MTM) to ensure the stable response of the cell lines. The selectivity index was estimated by determining the ratio of GI50 estimates between ETS fusion negative and ETS fusion positive cell lines.
row,Compound,PC:TC32 (cellular selectivity)
1,COC(=O)C(Cc1ccccc1)NC(=O)CON=C(C(O)C(C)O)C(OC)C1Cc2cc3cc(OC4CC(OC5CC(O)C(O)C(C)O5)C(O)C(C)O4)c(C)c(O)c3c(O)c2C(=O)C1OC1CC(OC2CC(OC3CC(C)(O)C(O)C(C)O3)C(O)C(C)O2)C(O)C(C)O1 (stereo not shown) [MTM (30)],2.08
2,COC(C(=NOCC(=O)NCc1ccccc1)C(O)C(C)O)C1Cc2cc3cc(OC4CC(OC5CC(O)C(O)C(C)O5)C(O)C(C)O4)c(C)c(O)c3c(O)c2C(=O)C1OC1CC(OC2CC(OC3CC(C)(O)C(O)C(C)O3)C(O)C(C)O2)C(O)C(C)O1 (stereo not shown) [MTM (31)],1.83
3,COC(C(=NOCC(=O)Nc1ccccc1)C(O)C(C)O)C1Cc2cc3cc(OC4CC(OC5CC(O)C(O)C(C)O5)C(O)C(C)O4)c(C)c(O)c3c(O)c2C(=O)C1OC1CC(OC2CC(OC3CC(C)(O)C(O)C(C)O3)C(O)C(C)O2)C(O)C(C)O1 (stereo not shown) [MTM (32)],1.11
4,COC(C(=NNC(=O)CCCCCN1C(=O)C=CC1=O)C(O)C(C)O)C1Cc2cc3cc(OC4CC(OC5CC(O)C(O)C(C)O5)C(O)C(C)O4)c(C)c(O)c3c(O)c2C(=O)C1OC1CC(OC2CC(OC3CC(C)(O)C(O)C(C)O3)C(O)C(C)O2)C(O)C(C)O1 (stereo not shown) [MTM (33)],3.9
5,COC(=O)C(Cc1c[nH]c2ccccc12)NC(=O)C(C)NC(=O)CON=C(C(O)C(C)O)C(OC)C1Cc2cc3cc(OC4CC(OC5CC(O)C(O)C(C)O5)C(O)C(C)O4)c(C)c(O)c3c(O)c2C(=O)C1OC1CC(OC2CC(OC3CC(C)(O)C(O)C(C)O3)C(O)C(C)O2)C(O)C(C)O1 (stereo not shown) [MTM (34)],4.28
6,COC(C(=NOCC(=O)NC(Cc1c[nH]c2ccccc12)C(=O)O)C(O)C(C)O)C1Cc2cc3cc(OC4CC(OC5CC(O)C(O)C(C)O5)C(O)C(C)O4)c(C)c(O)c3c(O)c2C(=O)C1OC1CC(OC2CC(OC3CC(C)(O)C(O)C(C)O3)C(O)C(C)O2)C(O)C(C)O1 (stereo not shown) [MTM (39)],7.4
7,COC(C(=NOCC(=O)NC(Cc1c[nH]c2ccccc12)C(=O)NCCc1c[nH]c2ccccc12)C(O)C(C)O)C1Cc2cc3cc(OC4CC(OC5CC(O)C(O)C(C)O5)C(O)C(C)O4)c(C)c(O)c3c(O)c2C(=O)C1OC1CC(OC2CC(OC3CC(C)(O)C(O)C(C)O3)C(O)C(C)O2)C(O)C(C)O1 (stereo not shown) [MTM (43)],2.6
8,COC(C(=NOCC(=O)Nc1ccncc1)C(O)C(C)O)C1Cc2cc3cc(OC4CC(OC5CC(O)C(O)C(C)O5)C(O)C(C)O4)c(C)c(O)c3c(O)c2C(=O)C1OC1CC(OC2CC(OC3CC(C)(O)C(O)C(C)O3)C(O)C(C)O2)C(O)C(C)O1 (stereo not shown) [MTM (45)],2.4
9,COC(C(=NOCC(=O)NC(Cc1c[nH]c2ccccc12)C(=O)Nc1ccccc1)C(O)C(C)O)C1Cc2cc3cc(OC4CC(OC5CC(O)C(O)C(C)O5)C(O)C(C)O4)c(C)c(O)c3c(O)c2C(=O)C1OC1CC(OC2CC(OC3CC(C)(O)C(O)C(C)O3)C(O)C(C)O2)C(O)C(C)O1 (stereo not shown) [MTM (47)],2.7
10,COC(C(=NOCC(=O)NC(Cc1c[nH]c2ccccc12)C(=O)NCc1c[nH]c2ccccc12)C(O)C(C)O)C1Cc2cc3cc(OC4CC(OC5CC(O)C(O)C(C)O5)C(O)C(C)O4)c(C)c(O)c3c(O)c2C(=O)C1OC1CC(OC2CC(OC3CC(C)(O)C(O)C(C)O3)C(O)C(C)O2)C(O)C(C)O1 (stereo not shown) [MTM (48)],2.30
11,COC(C(=NOCC(=O)Nc1cccnc1)C(O)C(C)O)C1Cc2cc3cc(OC4CC(OC5CC(O)C(O)C(C)O5)C(O)C(C)O4)c(C)c(O)c3c(O)c2C(=O)C1OC1CC(OC2CC(OC3CC(C)(O)C(O)C(C)O3)C(O)C(C)O2)C(O)C(C)O1 (stereo not shown) [MTM (49)],2.4
12,COC(C(=NOCC(=O)Nc1cncnc1)C(O)C(C)O)C1Cc2cc3cc(OC4CC(OC5CC(O)C(O)C(C)O5)C(O)C(C)O4)c(C)c(O)c3c(O)c2C(=O)C1OC1CC(OC2CC(OC3CC(C)(O)C(O)C(C)O3)C(O)C(C)O2)C(O)C(C)O1 (stereo not shown) [MTM (50)],2.7
13,COC(=O)C(Cc1ccccc1)NC(=O)C(Cc1c[nH]c2ccccc12)NC(=O)CON=C(C(O)C(C)O)C(OC)C1Cc2cc3cc(OC4CC(OC5CC(O)C(O)C(C)O5)C(O)C(C)O4)c(C)c(O)c3c(O)c2C(=O)C1OC1CC(OC2CC(OC3CC(C)(O)C(O)C(C)O3)C(O)C(C)O2)C(O)C(C)O1 (stereo not shown) [MTM (51)],2.2
14,COC(=O)C(C)NC(=O)C(Cc1c[nH]c2ccccc12)NC(=O)CON=C(C(O)C(C)O)C(OC)C1Cc2cc3cc(OC4CC(OC5CC(O)C(O)C(C)O5)C(O)C(C)O4)c(C)c(O)c3c(O)c2C(=O)C1OC1CC(OC2CC(OC3CC(C)(O)C(O)C(C)O3)C(O)C(C)O2)C(O)C(C)O1 (stereo not shown) [MTM (52)],6.6
15,CNC(=O)C(Cc1c[nH]c2ccccc12)NC(=O)C(Cc1c[nH]c2ccccc12)NC(=O)CON=C(C(O)C(C)O)C(OC)C1Cc2cc3cc(OC4CC(OC5CC(O)C(O)C(C)O5)C(O)C(C)O4)c(C)c(O)c3c(O)c2C(=O)C1OC1CC(OC2CC(OC3CC(C)(O)C(O)C(C)O3)C(O)C(C)O2)C(O)C(C)O1 (stereo not shown) [MTM (53)],5.0
16,COC(C(=NOCC(=O)NC(Cc1c[nH]c2ccccc12)C(=O)NC(C)CO)C(O)C(C)O)C1Cc2cc3cc(OC4CC(OC5CC(O)C(O)C(C)O5)C(O)C(C)O4)c(C)c(O)c3c(O)c2C(=O)C1OC1CC(OC2CC(OC3CC(C)(O)C(O)C(C)O3)C(O)C(C)O2)C(O)C(C)O1 (stereo not shown) [MTM (55)],2.7
17,COC(C(=NOCC(=O)NC(Cc1c[nH]c2ccccc12)C(=O)NCc1cnccn1)C(O)C(C)O)C1Cc2cc3cc(OC4CC(OC5CC(O)C(O)C(C)O5)C(O)C(C)O4)c(C)c(O)c3c(O)c2C(=O)C1OC1CC(OC2CC(OC3CC(C)(O)C(O)C(C)O3)C(O)C(C)O2)C(O)C(C)O1 (stereo not shown) [MTM (56)],1.9
18,COC(C(=NOCC(=O)NC(Cc1c[nH]c2ccccc12)C(=O)NC(Cc1c[nH]c2ccccc12)c1nc(C)no1)C(O)C(C)O)C1Cc2cc3cc(OC4CC(OC5CC(O)C(O)C(C)O5)C(O)C(C)O4)c(C)c(O)c3c(O)c2C(=O)C1OC1CC(OC2CC(OC3CC(C)(O)C(O)C(C)O3)C(O)C(C)O2)C(O)C(C)O1 (stereo not shown) [MTM (58)],2.4
19,COC(C(=NOCC(=O)Nc1ccc2[nH]ccc2c1)C(O)C(C)O)C1Cc2cc3cc(OC4CC(OC5CC(O)C(O)C(C)O5)C(O)C(C)O4)c(C)c(O)c3c(O)c2C(=O)C1OC1CC(OC2CC(OC3CC(C)(O)C(O)C(C)O3)C(O)C(C)O2)C(O)C(C)O1 (stereo not shown) [MTM (60)],10
20,COC(=O)c1ccc(NC(=O)CON=C(C(O)C(C)O)C(OC)C2Cc3cc4cc(OC5CC(OC6CC(O)C(O)C(C)O6)C(O)C(C)O5)c(C)c(O)c4c(O)c3C(=O)C2OC2CC(OC3CC(OC4CC(C)(O)C(O)C(C)O4)C(O)C(C)O3)C(O)C(C)O2)c(OCC(C)C)c1 (stereo not shown) [MTM (61)],5.7
21,COC(C(=NOCCNC(=O)c1ccc([N+](=O)[O-])c(OCC(C)C)c1)C(O)C(C)O)C1Cc2cc3cc(OC4CC(OC5CC(O)C(O)C(C)O5)C(O)C(C)O4)c(C)c(O)c3c(O)c2C(=O)C1OC1CC(OC2CC(OC3CC(C)(O)C(O)C(C)O3)C(O)C(C)O2)C(O)C(C)O1 (stereo not shown) [MTM (63)],13.3
22,COC(C(=NOCC(=O)NCc1ccc2cc[nH]c2c1)C(O)C(C)O)C1Cc2cc3cc(OC4CC(OC5CC(O)C(O)C(C)O5)C(O)C(C)O4)c(C)c(O)c3c(O)c2C(=O)C1OC1CC(OC2CC(OC3CC(C)(O)C(O)C(C)O3)C(O)C(C)O2)C(O)C(C)O1 (stereo not shown) [MTM (64)],12.3
23,COC(C(=NOCC(=O)NCc1ccc2[nH]ccc2c1)C(O)C(C)O)C1Cc2cc3cc(OC4CC(OC5CC(O)C(O)C(C)O5)C(O)C(C)O4)c(C)c(O)c3c(O)c2C(=O)C1OC1CC(OC2CC(OC3CC(C)(O)C(O)C(C)O3)C(O)C(C)O2)C(O)C(C)O1 (stereo not shown) [MTM (65)],20.1
24,COC(C(=NOCC(=O)Nc1ccc2cc[nH]c2c1)C(O)C(C)O)C1Cc2cc3cc(OC4CC(OC5CC(O)C(O)C(C)O5)C(O)C(C)O4)c(C)c(O)c3c(O)c2C(=O)C1OC1CC(OC2CC(OC3CC(C)(O)C(O)C(C)O3)C(O)C(C)O2)C(O)C(C)O1 (stereo not shown) [MTM (66)],4.2
25,COC(C(=NOCC(=O)Nc1ccc2c(c1)CC(=O)N2)C(O)C(C)O)C1Cc2cc3cc(OC4CC(OC5CC(O)C(O)C(C)O5)C(O)C(C)O4)c(C)c(O)c3c(O)c2C(=O)C1OC1CC(OC2CC(OC3CC(C)(O)C(O)C(C)O3)C(O)C(C)O2)C(O)C(C)O1 (stereo not shown) [MTM (67)],3.8
26,COC(C(=NOCC(=O)Nc1cccc2[nH]ccc12)C(O)C(C)O)C1Cc2cc3cc(OC4CC(OC5CC(O)C(O)C(C)O5)C(O)C(C)O4)c(C)c(O)c3c(O)c2C(=O)C1OC1CC(OC2CC(OC3CC(C)(O)C(O)C(C)O3)C(O)C(C)O2)C(O)C(C)O1 (stereo not shown) [MTM (68)],4.5
27,COC(C(=NOCC(=O)Nc1ccc2scnc2c1)C(O)C(C)O)C1Cc2cc3cc(OC4CC(OC5CC(O)C(O)C(C)O5)C(O)C(C)O4)c(C)c(O)c3c(O)c2C(=O)C1OC1CC(OC2CC(OC3CC(C)(O)C(O)C(C)O3)C(O)C(C)O2)C(O)C(C)O1 (stereo not shown) [MTM (69)],11.4
28,COC(C(=NOCC(=O)Nc1ccc2ncsc2c1)C(O)C(C)O)C1Cc2cc3cc(OC4CC(OC5CC(O)C(O)C(C)O5)C(O)C(C)O4)c(C)c(O)c3c(O)c2C(=O)C1OC1CC(OC2CC(OC3CC(C)(O)C(O)C(C)O3)C(O)C(C)O2)C(O)C(C)O1 (stereo not shown) [MTM (70)],7.2
